Data taken from publication PMC11053168, “Agonist-selective activation of individual G-proteins by muscarinic receptors” (Scientific Reports, 2024).
Read-outs that look alike come from different tables or passages of the source. Blank lines part the entries; values can stand above or below the compound they belong to.

Assays:
M4 muscarinic receptor = molecular target: T1, M4 muscarinic receptor (Homo sapiens, UniProt P08173); experiment: [3H]NMS competition binding, membranes from CHO cells expressing M4
T1 construct: membranes
T1 sequence (P08173 1-479): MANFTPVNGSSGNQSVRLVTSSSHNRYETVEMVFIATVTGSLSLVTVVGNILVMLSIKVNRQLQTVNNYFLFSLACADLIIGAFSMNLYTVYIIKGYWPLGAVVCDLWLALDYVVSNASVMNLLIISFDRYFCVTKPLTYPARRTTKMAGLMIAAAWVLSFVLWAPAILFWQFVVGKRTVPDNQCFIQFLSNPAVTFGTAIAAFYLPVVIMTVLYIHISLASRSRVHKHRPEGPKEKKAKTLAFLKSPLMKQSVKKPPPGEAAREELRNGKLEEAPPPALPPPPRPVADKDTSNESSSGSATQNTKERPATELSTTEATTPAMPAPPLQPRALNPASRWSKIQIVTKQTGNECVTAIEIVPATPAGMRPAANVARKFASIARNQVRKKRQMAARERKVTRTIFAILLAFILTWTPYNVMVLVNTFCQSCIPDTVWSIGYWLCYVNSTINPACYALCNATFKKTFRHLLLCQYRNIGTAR
Method: (§1) Cells were cultured as described previously by Randakova et al.[33]. […] The medium was supplemented with 5 mM butyrate for the last 24 h of culture to increase receptor expression. Cells were washed with (phosphate-buffered saline (PBS), mechanically harvested by scraper and centrifugated 1000 × g for 5 min. Cell pellets were kept at − 80 °C.
(§2) Membranes were prepared as described previously by Randakova et al.[33]. Cells harvested from twenty 100 mm petri dishes (CHO) or 30 ml of cell suspension (Sf9) were suspended in 20 ml of ice-cold incubation medium (100 mM NaCl, 20 mM Na-HEPES, 10 mM MgCl2, pH 7.4) supplemented with 10 mM EDTA and homogenized on ice by two 30‐s strokes using a Polytron homogenizer (Ultra-Turrax; Janke & Kunkel GmbH & Co. KG, IKA-Labortechnik, Staufen, Germany) with a 30 s pause between strokes. Cell homogenates were centrifuged for 5 min at 1000×g to remove whole cells and cell nuclei. The resulting supernatants were centrifuged for 30 min at 30,000×g. Pellets were suspended in a fresh incubation medium, incubated on ice for 30 min, and centrifuged again. The resulting membrane pellets were kept at − 80 °C until assayed within 10 weeks.
(§3) Non-specific binding was determined in the presence of 10 μM unlabelled atropine. Incubations were terminated by filtration through filtration plates multiscreen 96 well Harvest (Merck Millipore) using a Brandel cell harvester (Brandel, Gaithersburg, MD, USA). Filtration plates were dried in a microwave oven, and then 40 μl of liquid scintillator Rotiscint eco plus (Roth) was added. The filtration plates were counted in the Microbeta scintillation counter (PerkinElmer). […] The inhibition constant KI was calculated according to Eq. (2).
(§4) Inhibition constants KI were calculated according to Eq. (2).2 KI=IC50/1+D/KD where IC50 is calculated according to Eq.

M2 muscarinic receptor = molecular target: T2, M2 muscarinic receptor (Homo sapiens, UniProt P08172); experiment: [3H]NMS competition binding, membranes from CHO cells expressing M2
T2 construct: membranes
T2 sequence (P08172 1-466): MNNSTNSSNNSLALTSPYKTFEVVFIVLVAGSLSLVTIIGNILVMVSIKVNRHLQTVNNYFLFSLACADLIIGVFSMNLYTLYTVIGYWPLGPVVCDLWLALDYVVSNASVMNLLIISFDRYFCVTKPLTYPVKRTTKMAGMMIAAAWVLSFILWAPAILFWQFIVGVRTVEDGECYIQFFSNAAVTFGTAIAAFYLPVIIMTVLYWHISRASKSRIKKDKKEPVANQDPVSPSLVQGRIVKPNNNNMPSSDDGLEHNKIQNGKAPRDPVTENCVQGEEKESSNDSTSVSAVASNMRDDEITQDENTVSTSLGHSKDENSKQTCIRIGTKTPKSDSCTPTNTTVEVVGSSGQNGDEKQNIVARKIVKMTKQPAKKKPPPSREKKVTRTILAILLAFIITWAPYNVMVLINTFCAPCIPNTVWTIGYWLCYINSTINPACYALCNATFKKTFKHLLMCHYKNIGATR
Method: as §1, §2, §3, §4

M3 muscarinic receptor = molecular target: T3, M3 muscarinic receptor (Homo sapiens, UniProt P20309); experiment: [3H]NMS competition binding, membranes from CHO cells expressing M3; conditions: competition with [3H]NMS, mean ± SD, three experiments, read-out: Binding affinity, negative logarithm of Ki (converted)
T3 construct: membranes
T3 sequence (P20309 whole entry): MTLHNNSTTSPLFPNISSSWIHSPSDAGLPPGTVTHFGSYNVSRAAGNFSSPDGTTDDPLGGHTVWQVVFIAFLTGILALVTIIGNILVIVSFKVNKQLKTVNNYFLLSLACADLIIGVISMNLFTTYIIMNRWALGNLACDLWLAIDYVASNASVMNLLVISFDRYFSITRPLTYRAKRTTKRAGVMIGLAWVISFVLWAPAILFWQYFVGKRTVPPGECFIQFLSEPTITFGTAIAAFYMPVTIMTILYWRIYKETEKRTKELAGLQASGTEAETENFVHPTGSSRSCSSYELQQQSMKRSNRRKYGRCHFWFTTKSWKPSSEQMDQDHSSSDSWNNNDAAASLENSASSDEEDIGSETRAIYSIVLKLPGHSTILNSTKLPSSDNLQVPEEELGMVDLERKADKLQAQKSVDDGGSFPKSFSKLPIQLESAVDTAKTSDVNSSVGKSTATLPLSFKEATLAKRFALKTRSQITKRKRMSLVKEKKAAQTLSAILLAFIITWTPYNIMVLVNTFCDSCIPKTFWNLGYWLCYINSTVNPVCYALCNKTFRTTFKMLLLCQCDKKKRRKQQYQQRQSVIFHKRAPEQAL
Method: as §1, §2, §3, §4

M5 muscarinic receptor = molecular target: T4, M5 muscarinic receptor (Homo sapiens, UniProt P08912); experiment: [3H]NMS competition binding, membranes from CHO cells expressing M5
T4 construct: membranes
T4 sequence (P08912 1-532): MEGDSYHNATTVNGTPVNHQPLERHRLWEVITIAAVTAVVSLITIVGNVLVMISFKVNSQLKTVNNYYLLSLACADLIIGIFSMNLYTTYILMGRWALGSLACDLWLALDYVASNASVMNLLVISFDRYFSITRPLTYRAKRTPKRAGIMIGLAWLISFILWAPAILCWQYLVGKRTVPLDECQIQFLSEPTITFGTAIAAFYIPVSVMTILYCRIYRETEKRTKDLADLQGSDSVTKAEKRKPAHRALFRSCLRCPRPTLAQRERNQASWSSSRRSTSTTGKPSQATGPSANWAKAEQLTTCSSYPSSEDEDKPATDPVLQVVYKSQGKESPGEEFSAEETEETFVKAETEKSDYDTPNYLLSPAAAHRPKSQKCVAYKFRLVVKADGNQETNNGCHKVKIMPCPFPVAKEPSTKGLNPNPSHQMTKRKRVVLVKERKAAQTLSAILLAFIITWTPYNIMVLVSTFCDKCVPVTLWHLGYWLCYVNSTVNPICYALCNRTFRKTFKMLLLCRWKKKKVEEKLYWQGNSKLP
Method: as §1, §2, §3, §4

M1 muscarinic receptor = molecular target: T5, M1 muscarinic receptor (Homo sapiens, UniProt P11229); experiment: [3H]NMS competition binding, membranes from CHO cells expressing M1; conditions: competition with [3H]NMS, mean ± SD, three experiments, read-out: Binding affinity, negative logarithm of Ki (converted)
T5 construct: membranes
T5 sequence (P11229 1-460): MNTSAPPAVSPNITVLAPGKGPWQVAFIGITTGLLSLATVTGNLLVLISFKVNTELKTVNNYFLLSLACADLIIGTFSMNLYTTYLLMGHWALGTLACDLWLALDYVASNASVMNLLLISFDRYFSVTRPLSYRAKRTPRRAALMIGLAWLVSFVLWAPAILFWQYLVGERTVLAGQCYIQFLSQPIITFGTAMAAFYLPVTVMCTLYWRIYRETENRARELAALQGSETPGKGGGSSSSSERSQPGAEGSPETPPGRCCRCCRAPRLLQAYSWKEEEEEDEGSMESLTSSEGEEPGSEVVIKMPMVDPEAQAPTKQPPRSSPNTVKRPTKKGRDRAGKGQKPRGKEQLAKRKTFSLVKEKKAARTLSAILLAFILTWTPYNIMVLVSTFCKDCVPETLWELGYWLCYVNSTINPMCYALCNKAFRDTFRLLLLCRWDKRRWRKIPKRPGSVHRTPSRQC
Method: as §1, §2, §3, §4

M2 receptor = molecular target: T6, M2 receptor (Homo sapiens, UniProt P08172); experiment: Agonist-stimulated GTPγ[35S] binding to Sf9 membranes expressing M2 receptor and individual Gαi/o; assay type: biochemical; set-up: host or cells: Sf9 insect cells, baculovirus (pFastBac1 / Bac-to-Bac); membranes; conditions: for Activation of individual Gi/o Gα types: M2 with GαoA, GαoB, Gαi1, Gαi2, Gαi3
T6 sequence (P08172 1-466): T2 sequence (P08172 1-466)
Method: Baculoviral stocks for expression of M2 receptor and individual Gα-subunits of Gi/o G-proteins (GαoA, GαoB, Gαi1, Gαi2, Gαi3) in SF9 cells were generated according to Bac-to-Bac® baculovirus expression system—user guide (https://assets.thermofisher.com/TFS-Assets/LSG/manuals/MAN0000414_BactoBacExpressionSystem_UG.pdf). […] After 96 h at 27 °C, baculoviral viral particles released into the medium were harvested. After centrifugation at 500×g for 10 min to remove detached cells and cell debris, baculoviral stock P0 was ready for amplification. Suspension of Sf9 cells at density 2 × 10^6 cells per ml was infected by baculoviral stock P0 in ratio 1:1000 and after 72 h of growth (in a shaking incubator at 135 rpm and 27 °C) the amplified baculoviral stock P1 was harvested. The cell suspension was centrifugated at 500×g for 10 min to remove cells and cell debris and the supernatant containing a high level of baculoviral particles P1 was collected. FBS to the concentration of 0.5% was added and the stock was stored at 4 °C, protected from light for up to 6 months. For the quantification of baculoviral particles, a plaque assay was used.
Cells were grown in suspension culture in 250 ml Erlenmeyer flasks in Sf-900™ III serum-free medium in an aerated shaking incubator at 27 °C and 135 rpm. Cells were maintained at the density of 1–4 × 10^6 cells per ml. Sf9 cells at the density 2 × 10^6 were co-infected with baculoviral stock for the M2 receptor and a particular Gi/o Gα in the ratio (1:10). […] Infected cells were harvested by centrifugation 1000×g for 10 min. Cell pellets were kept at − 80 °C.
as §2
Agonist stimulated GTPγ[^35S]binding to membranes from Sf9 cells expressing the M2 receptors in a combination with α-subunit of given Gi/o type (GαoA, GαoB, Gαi1, Gαi2, Gαi3) was measured in 96-well plates in a final volume of 200 µl of incubation medium described above containing 500 pM of GTPγ[^35S] […] Nonspecific binding was determined in the presence of 1 µM nonlabelled GTPγS. Incubations were terminated and processed as described above. Parameters of functional response were calculated according to Eq. (3) after subtraction of non-specific binding.
The basal value of GTPγ[^35S] binding was determined in the absence of the agonist. After subtraction of non-specific binding determined in the presence of 10 μM nonlabelled GTPγS, GTPγ[^35S]binding was divided by the basal value and expressed as folds over basal. […] Then Eq. (3) was fitted to the data using GraphPad. Obtained EMAX and EC50 values were used to calculate RAi values using Eq. (7). To determine τ and KA of the functional responses system EMAX was determined as described earlier. Basal values were subtracted and functional responses were expressed as fractions of system EMAX. […] Obtained τ and KA values were used to calculate the bias factor according to Eq. (8), see below, for each experiment.
Equation (4) was fitted to data by the two-step procedure described earlier[61]

- Ki (M4 muscarinic receptor; M4, competition with [3H]NMS, mean ± SD, three experiments, read-out: Binding affinity, negative logarithm of Ki (converted)): > 1000 µM
- Ki (M2 muscarinic receptor; M2, competition with [3H]NMS, mean ± SD, three experiments, read-out: Binding affinity, negative logarithm of Ki (converted)): 302 µM
- Ki (M3 muscarinic receptor): > 1000 µM
- Ki (M5 muscarinic receptor; M5, competition with [3H]NMS, mean ± SD, three experiments, read-out: Binding affinity, negative logarithm of Ki (converted)): > 1000 µM
- Ki (M1 muscarinic receptor): > 1000 µM
Compound: c1csc(CN2CCOCC2)c1 [JB-12-1]

Compound: COC(=O)C1=CCC[N+](C)(Cc2cccs2)C1 (centres unmarked) [JB-13-2]
- Ki (M4 muscarinic receptor): 22.9 µM
- Ki (M2 muscarinic receptor): 9.55 µM
- Ki (M3 muscarinic receptor): 126 µM
- Ki (M5 muscarinic receptor): 97.7 µM
- Ki (M1 muscarinic receptor): 42.7 µM

Compound: C[N+](C)(C)CC#CCOC(=O)Nc1cccc(Cl)c1.[Cl-] [Mc-Neil A343, reference compound]
- Bias according to RAi, Gαi2 vs GαoB (M2 receptor; M2, relative to carbachol): 2.3 ×
- Activation of individual Gi/o Gα types (M2 receptor): activated all Gi/o Gα

Compound: Clc1ccc2c(c1)N=C(N1CCNCC1)c1ccccc1N2 [NDMC, reference compound]
- Activation of individual Gi/o Gα types (M2 receptor): activated all Gi/o Gα

Compound: C[N+](C)(C)CC#CCOC1=NOCC1 [iperoxo, reference compound]
- Bias according to RAi, Gαi3 vs GαoA (M2 receptor; M2, relative to carbachol): 2.5 times
- Activation of individual Gi/o Gα types (M2 receptor): activated all Gi/o Gα

Compound: O=C1CCCN1CC#CCN1CCCC1 [oxotremorine, reference compound]
- Bias according to RAi, Gαi2 vs Gαi3 (M2 receptor; M2, relative to carbachol): 2 ×
- Activation of individual Gi/o Gα types (M2 receptor): activated all Gi/o Gα
